Data reported in patent US9777002B2, “Inhibitors of the renal outer medullary potassium channel” (Merck Sharp & Dohme Corp., priority 2012, dated 2017).

Target: T1, hROMK (hKir1.1) (Homo sapiens, UniProt P48048)
T1 construct: expressed in transfected cells
T1 sequence (P48048 1-391): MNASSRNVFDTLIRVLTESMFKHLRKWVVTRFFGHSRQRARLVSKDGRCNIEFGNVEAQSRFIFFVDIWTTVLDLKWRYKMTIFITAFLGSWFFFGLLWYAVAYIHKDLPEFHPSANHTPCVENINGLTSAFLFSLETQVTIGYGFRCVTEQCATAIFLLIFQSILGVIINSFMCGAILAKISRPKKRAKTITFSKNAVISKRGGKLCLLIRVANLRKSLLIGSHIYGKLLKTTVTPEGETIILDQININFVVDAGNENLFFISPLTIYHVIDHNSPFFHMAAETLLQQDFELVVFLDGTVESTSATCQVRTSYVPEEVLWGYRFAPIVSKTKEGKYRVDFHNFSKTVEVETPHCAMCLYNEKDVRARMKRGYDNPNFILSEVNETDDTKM
Experiment: Thallium Flux Assay
Assay type: cell-based
Conditions: HEK293 cells stably expressing hROMK (hKir1.1)
Description: Cell Culture Conditions—HEK293 cells stably expressing hROMK (hKir1.1) were grown at 37° C. in a 10% CO2 humidified incubator in complete growth media: Dulbecco's Modified Eagle Medium supplemented with non-essential amino acids, Penicillin/Streptomycin/Glutamine, G418 and FBS. At >80% confluency, aspirate the media from the flask and rinse with 10 mL Calcium/Magnesium-free PBS. Add 5 mL of 1× trypsin (prepared in Ca/Mg Free PBS) to T-225 flask and return flask to 37° C./CO2 incubator for 2-3 minutes. To dislodge the cell, gently bang the side of the flask with your hand. Triturate the cells completely and then transfer the cells to 25 mL complete media. Centrifuge at 1,500 rpm for 6 min followed by resuspension in complete growth media and determine cell concentration. For typical re-seeding, 4E6 cells/T-225 flask will attain >80% confluency in 4 days. Under ideal growth conditions and appropriate tissue culture practices, this cell line is stable for 40-45 passages.
FluxOR Kit Components (Invitrogen F10017)
• FluxOR™ Reagent (Component A) • FluxOR™ Assay Buffer (Component B)—10× Concentrate • PowerLoad™ Concentrate (Component C)—100× Concentrate • Probenecid (Component D)—Lyophilized sample is kept at −20° C. Water soluble, 100× after solubilization in 1 mL water. Store at 4° C. • FluxOR™ Chloride-free Buffer (Component E)—5× Concentrate • Potassium sulfate (K2SO4) Concentrate (Component F)—125 mM in water. Store at 4° C. • Thallium sulfate (Tl2SO4) Concentrate (Component G)—50 mM in water. Store at 4° C. • DMSO (dimethyl sulfoxide, Component H)—1 mL (100%) Reagent Preparation: FluxOR Working Solutions • 1000× FluxOR™ Reagent: Reconstitute a vial of component A in 100 μl DMSO; Mix well; Store 10 μl aliquots at −20° C. • 1× FluxOR™ Assay Buffer: Dilute Component B 10-fold with water; Adjust pH to 7.4 with Hepes/NaOH; Filter and store at 4° C. • Probenecid/Assay Buffer: 100 mL of 1× FluxOR™ Assay Buffer; 1 mL of reconstituted component D; Store at 4° C. • Loading Buffer (per microplate): 10 μl 1000× FluxOR™ Reagent; 100 μl component C; 10 mL Probenecid/Assay Buffer • Compound Buffer (per microplate): 20 mL Probenecid/Assay Buffer; 0.3 mM ouabain (10 mM ouabain in water can be stored in amber bottle/aluminum foil at room temperature); Test compound • 1× FluxOR™ Chloride-Free Buffer: Prepare 1× working solution in water. Can be stored at room temperature • Stimulant Buffer (prepared at 5× final concentration in 1× FluxOR™Chloride-Free Buffer): 7.5 mM Thallium sulfate and 0.75 mM Potassium sulfate (to give a final assay concentration of 3 mM Thallium/0.3 mM Potassium). Store at 4° C. when not in use. If kept sterile, this solution is good for months.
Assay Protocol—The ROMK channel functional thallium flux assay is performed in 384 wells, using the FLIPR-Tetra instrument. HEK-hKir1.1 cells are seeded in Poly-D-Lysine microplates and kept in a 37° C.-10% CO2 incubator overnight. On the day of the experiment, the growth media is replaced with the FluxOR™ reagent loading buffer and incubated, protected from light, at ambient temperature (23-25° C.) for 90 min. The loading buffer is replaced with assay buffer± test compound followed by 30 min incubation at ambient temperature, where the Thallium/Potassium stimulant is added to the microplate.
• 1. Seed HEK-hKir1.1 cells (50 μl at 20,000 cells/well) in 384-well PDL coated Microplates • 2. Allow cells to adhere overnight in humidified 37° C./10% CO2 incubator • 3. Completely remove cell growth media from microplate and replace with 25 μl loading buffer • 4. Incubate Microplate at room temperature, protected form light, for 90 min • 5. Remove loading buffer and replace with 25 μl 1× Assay Buffer±test compound. • 6. Incubate microplate at room temperature, protected from light, for 30 min • 7. At FLIPR-Tetra 384: Add stimulant (Thallium/Potassium) solution to microplate and monitor fluorescence. Excitation=400 nm, Emission=460 & 580 nm. Collect data for ˜10 min. […]

IC50 [nM]	SMILES
180	Cc1c([C@@H](O)CN2CC[C@H](NC(=O)c3ccc(C#N)cn3)[C@H](F)C2)ccc2c1COC2=O (single isomer, unassigned) [43 B]
570	Cc1nc(C(=O)N[C@H]2CCN(C[C@H](O)c3ccc4c(c3C)COC4=O)C[C@H]2F)ccc1C#N (single isomer, unassigned) [44 A]
260	Cc1nc(C(=O)N[C@H]2CCN(C[C@H](O)c3ccc4c(c3C)COC4=O)C[C@H]2F)ccc1C#N (single isomer, unassigned) [44 B]
520	Cc1c([C@@H](O)CN2CCC(NC(=O)c3ccc(C#N)nc3)C(F)C2)ccc2c1COC2=O (single isomer, unassigned) [46 A]
650	Cc1c([C@@H](O)CN2CCC(NC(=O)c3ccc(C#N)nc3)C(F)C2)ccc2c1COC2=O (single isomer, unassigned) [46 B]
160	Cc1cc(C(=O)N[C@H]2CCN(C[C@H](O)c3ccc4c(c3C)COC4=O)C[C@H]2F)ccc1C#N (single isomer, unassigned) [47 A]
180	Cc1cc(C(=O)N[C@H]2CCN(C[C@H](O)c3ccc4c(c3C)COC4=O)C[C@H]2F)ccc1C#N (single isomer, unassigned) [47 B]
80	Cc1cc(C(=O)NC2CCN(C[C@H](O)c3ccc4c(c3C)COC4=O)CC2F)ncc1C#N (single isomer, unassigned) [48 A]
100	Cc1cc(C(=O)NC2CCN(C[C@H](O)c3ccc4c(c3C)COC4=O)CC2F)ncc1C#N (single isomer, unassigned) [48 B]
100	Cc1c([C@@H](O)CN2CC[C@H](NC(=O)c3ccc(-n4cnnn4)nc3)[C@H](F)C2)ccc2c1COC2=O (single isomer, unassigned) [50 A]
930	Cc1c([C@@H](O)CN2CC[C@H](NC(=O)c3ccc(-n4cnnn4)nc3)[C@H](F)C2)ccc2c1COC2=O (single isomer, unassigned) [50 B]
760	CO[C@@H]1CN(C[C@H](O)c2ccc3c(c2C)COC3=O)CC[C@@H]1NC(=O)c1ccc(-n2cnnn2)nc1 (single isomer, unassigned) [54 A]
340	CO[C@@H]1CN(C[C@H](O)c2ccc3c(c2C)COC3=O)CC[C@@H]1NC(=O)c1ccc(-n2cnnn2)nc1 (single isomer, unassigned) [54 B]
540	Cc1c([C@@H](O)CN2CC[C@H](NC(=O)c3ccc(-n4cnnn4)cn3)[C@H](F)C2)ccc2c1COC2=O (single isomer, unassigned) [58 A]
870	Cc1c([C@@H](O)CN2CC[C@H](NC(=O)c3ccc(-n4cnnn4)cn3)[C@H](F)C2)ccc2c1COC2=O (single isomer, unassigned) [58 B]
880	Cc1c([C@@H](O)CN2CCC(C)(CNC(=O)c3ccc(-n4cnnn4)cn3)C2)ccc2c1COC2=O (single isomer, unassigned) [69 A]

IC50 [nM]	SMILES
490	Cc1c([C@@H](O)CN2CCC(C)(CNC(=O)c3ccc(-n4cnnn4)cn3)C2)ccc2c1COC2=O (single isomer, unassigned) [69 B]
620	Cc1c([C@@H](O)CN2CCC(CNC(=O)c3ccc(-n4cnnn4)nc3)(c3ccccc3)C2)ccc2c1COC2=O (single isomer, unassigned) [81 A]
160	Cc1c([C@@H](O)CN2CCC(CNC(=O)c3ccc(-n4cnnn4)nc3)(c3ccccc3)C2)ccc2c1COC2=O (single isomer, unassigned) [81 B]
740	Cc1c([C@@H](O)CN2CCC(C3(NC(=O)c4ccc(-n5cnnn5)nc4)CCC3)C2)ccc2c1COC2=O (single isomer, unassigned) [90 A]
280	Cc1c([C@@H](O)CN2CCC(C3(NC(=O)c4ccc(-n5cnnn5)nc4)CCC3)C2)ccc2c1COC2=O (single isomer, unassigned) [90 B]
600	Cc1c(CCN2CCC(N(C)C(=O)c3ccc4c(c3)COC4=O)CC2)ccc2c1COC2=O [Example 2, N-Methyl-N-(1-(2-(4-methyl-1-oxo-1,3-dihydroisobenzofuran-5-yl)ethyl)piperidin-4-yl)-1-oxo-1,3-dihydroisobenzofuran-5-carboxamide]
500	Cc1c(CCN2CCC(NC(=O)c3ccc(-n4cnnn4)nc3)CC2)ccc2c1COC2=O [Example 3, N-(1-(2-(4-Methyl-1-oxo-1,3-dihydroisobenzofuran-5-yl)ethyl)piperidin-4-yl)-6-(1H-tetrazol-1-yl)nicotinamide]
320	C[C@H]1Cc2cc(CCN3CCC(NC(=O)c4ccc5c(c4)COC5=O)CC3)ccc2C(=O)O1 [Example 4, (S)-N-(1-(2-(3-methyl-1-oxoisochroman-6-yl)ethyl)piperidin-4-yl)-1-oxo-1,3-dihydroisobenzofuran-5-carboxamide]
20	COc1cc(C(=O)NC2CCN(CCc3ccc4c(c3C)COC4=O)CC2)ccc1C#N [Example 5, 4-Cyano-3-methoxy-N-(1-(2-(4-methyl-1-oxo-1,3-dihydroisobenzofuran-5-yl)ethyl)piperidin-4-yl)benzamide]
40	Cc1c(C(O)CN2CCC(NC(=O)c3ccc4c(c3)COC4=O)CC2)ccc2c1COC2=O (stereo not shown) [Example 6, N-(1-(2-Hydroxy-2-(4-methyl-1-oxo-1,3-dihydroisobenzofuran-5-yl)ethyl)piperidin-4-yl)-1-oxo-1,3-dihydroisobenzofuran-5-carboxamide]
10	COc1cc(C(=O)NC2CCN(CC(O)c3ccc4c(c3C)COC4=O)CC2)ccc1C#N (stereo not shown) [Example 7, 4-Cyano-N-(1-(2-hydroxy-2-(4-methyl-1-oxo-1,3-dihydroisobenzofuran-5-yl)ethyl)piperidin-4-yl)-3-methoxybenzamide]
460	Cc1c(CCN2CCC(NC(=O)c3ccc4nonc4c3)CC2)ccc2c1COC2=O [Example 8, N-(1-(2-(4-Methyl-1-oxo-1,3-dihydroisobenzofuran-5-yl)ethyl)piperidin-4-yl)benzo[c][1,2,5]oxadiazole-5-carboxamide]
30	COc1ccc(C(=O)NC2CCN(CCc3ccc4c(c3C)COC4=O)CC2)cc1C#N [Example 9, 3-Cyano-4-methoxy-N-(1-(2-(4-methyl-1-oxo-1,3-dihydroisobenzofuran-5-yl)ethyl)piperidin-4-yl)benzamide]
60	COc1ccc(C(=O)NC2CCN(CC(O)c3ccc4c(c3C)COC4=O)CC2)cc1C#N (stereo not shown) [Example 10, 3-Cyano-N-(1-(2-hydroxy-2-(4-methyl-1-oxo-1,3-dihydroisobenzofuran-5-yl)ethyl)piperidin-4-yl)-4-methoxybenzamide]
30	Cc1c(CCN2CCC(NC(=O)c3ccc(C#N)c(F)c3)CC2)ccc2c1COC2=O [Example 11, 4-Cyano-3-fluoro-N-(1-(2-(4-methyl-1-oxo-1,3-dihydroisobenzofuran-5-yl)ethyl)piperidin-4-yl)benzamide]
